Measurements published in article PMC10010643 (Cancer Chemotherapy and Pharmacology, 2023).
Like-named read-outs stand apart in the source and are kept apart here.

Experiment: Plasma PK, Part B multiple oral BID doses in healthy participants
Type: in vivo, human
Conditions: for concentration at 12 h / AUC / Cmax / Tmax / half-life / Vd/F: human, plasma, oral; for concentration at 12 h: read-out: Trough (12 h post-dose) concentration (Cmin), geometric mean (range); for AUC: read-out: AUC0-τ, geometric mean (CV%); for Cmax: read-out: Cmax, geometric mean (CV%); for half-life: read-out: t½, arithmetic mean (SD) (converted); for Vd/F: read-out: Vz/F, geometric mean (CV%)
Description: Following review of safety, tolerability, and PK data from cohorts A1–A6, participants received twice-daily doses (BID) under fasted conditions on days 1–9 and a final single dose in the morning of day 10. […] There was one treatment period and all participants stayed at the CRU from day − 1 until the morning of day 11 (24 h after the final dose on day 10). All were to return for a follow-up visit 5–7 days after their final dose.
Blood samples (4 mL) were collected in K3 EDTA tubes by venipuncture or cannulation. In Part A, samples were taken pre-dose and at 0.5, 1, 1.5, 2, 3, 4, 6, 8, 12, 16, 24, 36 and 48 h post-dose. In part B, samples were taken pre-dose on days 1 (pre-AM dose) and 10 (pre-final dose) and at 0.5, 1, 1.5, 2, 3, 4, 6, 8 and 12 h post-AM dose for day 1 and post-final dose for day 10. Samples were also taken on days 4–9 pre-AM dose, on day 11 at 24 and 36 h post-final dose, and on day 12 at 48 h post-final dose. Blood samples were centrifuged at 1500 g for 10 min at […] and split into two plasma aliquots.
Urine was collected by spot collection in Part A only before dosing and between 0–6, 6–12, 12–24, and 24–48 h post-dose. Blood and urine aliquots were stored in polypropylene tubes at − 70 °C until bioanalysis.
In Part B, the plasma PK parameters included AUC over a dosing interval (AUC0–τ), AUC0–∞, Cmax, Tmax, t½, minimum observed plasma concentration (Cmin), observed accumulation ratio based on AUC0–τ (RAAUC0–τ) and observed accumulation ratio based on Cmax (RACmax). Further details can be found in the Supplementary materials.
Dose proportionality was analyzed for exposure parameters after fasted doses. The power model was used on AUC0–∞, AUC0–tlast, and Cmax on day 1 in Part A. Data were analyzed over two dose ranges: 50–400 mg (50 mg capsules) and 5–50 mg (5 mg capsules). An analysis of variance was used on AUC0–τ and Cmax on day 10 in Part B. The effect of food on AUC0–∞, AUC0–tlast, and Cmax at 50 mg in Part A was investigated using a mixed model which included treatment as a fixed effect and subject as a random effect.

[1] = 50 mg, 50 mg BID, fasted, Day 1
[2] = 50 mg, 50 mg BID, fasted, Day 10
[3] = 100 mg, 100 mg BID, fasted, Day 1
[4] = 100 mg, 100 mg BID, fasted, Day 10

OC[C@H]1O[C@H](Sc2cncc(Br)c2)[C@H](O)[C@@H](n2cc(-c3cc(F)c(F)c(F)c3)nn2)[C@H]1O [GB1211]
CL/F, geometric mean (CV%) (50 mg BID, fasted, Day 10): 9.75 (29.0) L/h
Cmin, geometric mean (CV%) (50 mg BID, fasted, Day 10): 249 (26.2) ng/mL
CL/F, geometric mean (CV%) (100 mg BID, fasted, Day 10): 13.3 (21.1) L/h
Cmin, geometric mean (CV%) (100 mg BID, fasted, Day 10): 338 (27.5) ng/mL
t½, arithmetic mean (SD) (100 mg BID, fasted, Day 10): 13.1 (2.65) h
Dose proportionality of AUC0–τ and Cmax (50 and 100 mg BID, day 10): sub-proportional manner
Time to steady-state after the start of the BID multiple-dosing period (by the morning of day 3): 48 h
concentration at 12 h (50 mg BID, day 10): 249 ng/mL
AUC [1]: 2220 ng·h/mL
Cmax [1]: 330 ng/mL
Tmax (50 mg, 50 mg BID, fasted, Day 1, read-out: Tmax, median (min–max)): 4 h
AUC [2]: 5130 ng·h/mL
Cmax [2]: 658 ng/mL
Tmax (50 mg, 50 mg BID, fasted, Day 10, read-out: Tmax, median (min–max)): 2.5 h
half-life [2]: ~21.4 h
concentration at 12 h (100 mg BID, day 10): 338 ng/mL
AUC [3]: 3560 ng·h/mL
Cmax [3]: 546 ng/mL
Tmax (100 mg, 100 mg BID, fasted, Day 1, read-out: Tmax, median (min–max)): 3 h
AUC [4]: 7530 ng·h/mL
Cmax [4]: 975 ng/mL
Tmax (100 mg, 100 mg BID, fasted, Day 10, read-out: Tmax, median (min–max)): 3 h
half-life [4]: ~13.1 h
Tmax (multiple BID doses, days 1 and 10, read-out: Median Tmax, range): 2.5 to 4 h
Vd/F (50 mg BID, fasted, Day 10): 311 L
Vd/F (100 mg BID, fasted, Day 10): 248 L
Accumulation in plasma with multiple dosing (multiple BID oral dosing): ~ twofold
Time to steady-state (multiple BID oral dosing): ≤ 3 days
